The record followed here is PubChem BioAssay AID977628 (Broad Institute, 2014).

Results filed as inconclusive are left out. Active and inactive are the calls of the source.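 Rule for the calls: active = compound lowering the normal-ribosome reporter at least twice as much as the humanized-ribosome reporter, growth loss under a set limit; inconclusive = no clear call, values can overlap the other calls; inactive = the rest.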 Some results are limits rather than exact numbers.

The subject of the assay is E. coli WT GFP strain growth, fluorescence, 24 h. Put plainly: E. coli growth inhibition, wild-type GFP versus h24 humanized RFP strain, dose response, h24 mutant RFP vs wild-type GFP, cherry-pick (AID 977628).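 Note: wild-type GFP and h24 humanized RFP strains co-cultured 1 to 1 per well.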

A word on the AC50: it is the midpoint of the concentration-response curve, whichever way the signal moves. With `CC(Nc1ncnc2ccccc12)c1ccccc1` (stereo unspecified), the AC50 is > 100 µM (inactive). Turning to `O=C(O)c1ccc(Oc2ccc([N+](=O)[O-])cc2)c([N+](=O)[O-])c1`, the AC50 is > 100 µM (inactive). In the case of `CC1C=Cc2ccccc2N1C(=O)c1ccccc1` (stereo unspecified) it was > 100 µM (inactive); in that of `COc1cccc(OC)c1OCCCOc1cccc2cccnc12`, > 100 µM (inactive); in that of `COc1ccccc1-c1cc2nc(NCCc3ccncc3)ccn2n1`, > 100 µM (inactive). As to `COc1cccc(NC(=O)c2ccc(-c3ccc([N+](=O)[O-])cc3)o2)c1`, the AC50 is > 100 µM (inactive). In the case of `O=C(Cc1cccc2ccccc12)Nc1ccccc1C(=O)O` it was > 100 µM (inactive).

As for `COc1ccc(-c2cc(C(=O)N3CCc4ccccc4C3)no2)cc1`, the AC50 was > 100 µM (inactive). As for `CCN(C(=O)COC(=O)c1ccc([N+](=O)[O-])o1)c1cccc2ccccc12`, the AC50 was > 100 µM (inactive). To `COc1ccc2nc(SCC(=O)Nc3ccccc3)[nH]c2c1` belongs > 100 µM (inactive).

In the case of `Cc1nnn(C23C[C@@H]4C[C@@H](CC(C(=O)N5CCN(c6ccccc6)CC5)(C4)C2)C3)n1`, the AC50 was > 100 µM (inactive).

As for `COc1ccc2c(c1)c(C(C)=O)c(C)n2CCc1ccc(OC)c(OC)c1`, the AC50 is > 100 µM (inactive). In the case of `COc1cc2nc(Nc3ccc(F)cc3)nc(N)c2cc1OC` it was > 100 µM (inactive). To `Cc1nc(Sc2ccccc2)c(C#N)c(C)c1[N+](=O)[O-]` belongs > 100 µM (inactive); to `O=C(Cc1cccc(NC(=O)C2CCN(C(=O)CCc3ccccc3)CC2)c1)Nc1cccc(C(=O)N2CCCC2)c1`, > 100 µM (inactive); to `Cc1ccoc1C(=O)Nc1ccc2ccccc2c1`, > 100 µM (inactive). In the case of `COc1ccccc1NC(=O)CSc1nccn1Cc1ccc(F)cc1`, the AC50 is > 100 µM (inactive).

As to `CC(C(=O)Nc1nc2ccccc2s1)n1cc([N+](=O)[O-])cn1` (stereo unspecified), the AC50 is > 100 µM (inactive). In the case of `Cc1ccccc1-n1nnnc1SCCCC(=O)c1ccc(F)cc1` it was > 100 µM (inactive); in that of `COc1cc(OC)cc(C(=O)N[C@H](C(=O)OCC(=O)Nc2ccc(F)c(F)c2F)C(C)C)c1`, > 100 µM (inactive); in that of `O=C(CCc1nc2ccccc2s1)OCC(=O)c1ccc[nH]1`, > 100 µM (inactive).

On to `O=c1[nH]c(C2CCN(S(=O)(=O)c3ccc4c(c3)OCCO4)CC2)nc2c1nnn2Cc1ccccc1F`, for which the AC50 is > 100 µM (inactive). `O=C1Nc2ccc(F)cc2C12Nc1ccccc1-c1nnc(SCc3ccccc3)nc1O2` (stereo unspecified): the AC50 was > 100 µM (inactive).

For `Cc1ccsc1C(=O)OCC(=O)N1CCc2ccccc2C1`, the AC50 is > 100 µM (inactive). For `COc1ccc(C(=O)C2CCCN(C(=O)c3noc4c3CCCC4)C2)cc1F` (stereo unspecified), the AC50 is > 100 µM (inactive). Consider `CC1Sc2ccc(S(=O)(=O)NCc3ccccc3)cc2NC1=O` (stereo unspecified), for which the AC50 is > 100 µM (inactive). In the case of `C=CCN(c1ccccc1)S(=O)(=O)c1cccc2cccnc12` it was > 100 µM (inactive). To `COc1ccc(C)cc1-n1c(=O)c2ccccc2c2ccccc2c1=O` belongs > 100 µM (inactive); to `COc1ccc(OC2C(=O)N(Cc3ccc4c(c3)OCO4)C2c2sccc2C)cc1` (stereo unspecified), > 100 µM (inactive); to `O=C(NCc1nc2ccccc2[nH]1)c1ccc(S(=O)(=O)N2CCCC2)cc1`, > 100 µM (inactive). In the case of `COc1cc(NC(=O)C(c2ccccc2)c2ccccc2)c(C(=O)O)cc1OC`, the AC50 was > 100 µM (inactive). In the case of `O=C(Nc1ccc2c(c1)OCO2)c1ccc([N+](=O)[O-])cc1[N+](=O)[O-]` it was > 100 µM (inactive); in that of `O=C(CCC(=O)c1cccs1)OCC(=O)c1ccc(Cl)s1`, > 100 µM (inactive). For the compound `O=C(C[C@H]1CC[C@@H]2[C@H](COC[C@@H](O)CN2C(=O)Nc2cc(Cl)cc(Cl)c2)O1)N1CCOCC1`, the AC50 was > 100 µM (inactive).

For the compound `O=C(C[n+]1cc(-c2ccc(Cl)c(Cl)c2)n2c1CCC2)OCc1ccccc1`, the AC50 is > 100 µM (inactive). To `COc1ccc(CNc2cc([N+](=O)[O-])ccc2OC)cc1` belongs > 100 µM (inactive); to `COc1ccc(OC)c(-c2nn(-c3ccccc3)cc2C(=O)N2CCc3ccccc3C2)c1`, > 100 µM (inactive). For `CSc1cccc(NC(=O)CSc2nc3ccccc3o2)c1`, the AC50 was > 100 µM (inactive). For `O=C1CCCN1CCCNc1ncnc2c1[nH]c1ccc(Cl)cc12`, the AC50 was > 100 µM (inactive).

On to `Cc1cc(Br)ccc1NC(=O)c1ccco1`, for which the AC50 was > 100 µM (inactive). For `Nc1nc(Nc2ccccc2F)nc(N2CCOCC2)c1[N+](=O)[O-]`, the AC50 is > 100 µM (inactive). To `COc1ccc(CNc2ncnc3cc(OC)c(OC)cc23)cc1OC` belongs > 100 µM (inactive); to `COc1cc(SC)ccc1C(=O)N1CCN(c2ccccc2F)CC1`, > 100 µM (inactive). To `O=C1NC(=O)C2(Cc3cc([N+](=O)[O-])ccc3N3CCN(C(=O)c4ccccc4)CC32)C(=O)N1` (stereo unspecified) belongs > 100 µM (inactive). To `O=C(O)C1CCCCC1C(=O)Nc1ccc(OCc2ccccc2)cc1` (stereo unspecified) belongs > 100 µM (inactive); to `COc1ccc(CNS(=O)(=O)c2ccc3c(c2)NC(=O)C(C)S3)cc1` (stereo unspecified), > 100 µM (inactive); to `CC(C)(C)c1ccc(N2C(=O)CSC2c2cccnc2)cc1` (stereo unspecified), > 100 µM (inactive). `CC(CCC(=O)O)C1CC[C@@]2(C)C3C(=O)CC4C(C)(C)C(O)CC[C@]4(C)C3C(=O)C[C@]12C` (stereo partly specified): the AC50 is > 100 µM (inactive).

As for `CCOC(=O)c1cnc2c(cnn2C)c1NCc1ccc(OC)cc1`, the AC50 was > 100 µM (inactive).

On to `CCn1nnc(NC(=O)c2ccc([N+](=O)[O-])o2)n1`, for which the AC50 is > 100 µM (inactive).

Take `O=C1NC(CCc2ccccc2)C(=O)N1Cc1cccc2ccccc12` (stereo unspecified): the AC50 was > 100 µM (inactive). `Cc1ccc(Cl)cc1N1CCN(C(=O)c2ccc3nc[nH]c3c2)CC1`: the AC50 was > 100 µM (inactive).

In the case of `CN1C(=O)c2ccccc2OC1(C)Cc1ccccc1` (stereo unspecified), the AC50 is > 100 µM (inactive). To `CSc1ccccc1NC(=O)c1ccccc1N(Cc1ccccc1)S(C)(=O)=O` belongs > 100 µM (inactive); to `CCN(CC)S(=O)(=O)c1cc(NS(=O)(=O)c2cccc(Cl)c2Cl)ccc1C`, > 100 µM (inactive); to `CCCn1nnnc1NCc1ccccc1OCc1cccs1`, > 100 µM (inactive).

Take `COc1cc(O)c2c(c1)/C=C/C[C@H](O)[C@H](O)C(=O)CCC[C@H](C)OC2=O`: the AC50 is > 100 µM (inactive). For the compound `Cc1cccc(NC(=O)c2sc3nc(-c4ccccc4)cn3c2C)n1`, the AC50 is > 100 µM (inactive). In the case of `CC(NCc1ccc(S(N)(=O)=O)cc1)C(=O)Nc1cc([N+](=O)[O-])ccc1Cl` (stereo unspecified) it was > 100 µM (inactive); in that of `COc1ccc(C(=O)N(c2ccccc2)c2nccc3ccccc23)cc1OC`, > 100 µM (inactive). In the case of `Cc1nn(C(C)(C)C)c(OC(=O)CC(C)C)c1S(=O)(=O)c1ccccc1` it was > 100 µM (inactive).
